Where two headings read alike, the source gives them in different places.
Columns and labels:
[1] = test system: mammalian cell lines; conditions: cited from earlier work
[2] = target: T1, hERG (Homo sapiens, UniProt Q12809); experiment: Western blot of hERG maturation; format: cell-based; conditions: 24 h, HEK-hERG; for hERG maturation (mature/immature ratio), dose–response: 0.5–20 μM
[3] = target: T1, hERG; experiment: Immunofluorescence microscopy of hERG localization in HEK-hERG cells; format: cell-based; conditions: 24 h, pentamidine 10 μM, analogues 10 μM
[4] = test system: Pneumocystis; conditions: cited from earlier work

T1 sequence (Q12809 whole entry): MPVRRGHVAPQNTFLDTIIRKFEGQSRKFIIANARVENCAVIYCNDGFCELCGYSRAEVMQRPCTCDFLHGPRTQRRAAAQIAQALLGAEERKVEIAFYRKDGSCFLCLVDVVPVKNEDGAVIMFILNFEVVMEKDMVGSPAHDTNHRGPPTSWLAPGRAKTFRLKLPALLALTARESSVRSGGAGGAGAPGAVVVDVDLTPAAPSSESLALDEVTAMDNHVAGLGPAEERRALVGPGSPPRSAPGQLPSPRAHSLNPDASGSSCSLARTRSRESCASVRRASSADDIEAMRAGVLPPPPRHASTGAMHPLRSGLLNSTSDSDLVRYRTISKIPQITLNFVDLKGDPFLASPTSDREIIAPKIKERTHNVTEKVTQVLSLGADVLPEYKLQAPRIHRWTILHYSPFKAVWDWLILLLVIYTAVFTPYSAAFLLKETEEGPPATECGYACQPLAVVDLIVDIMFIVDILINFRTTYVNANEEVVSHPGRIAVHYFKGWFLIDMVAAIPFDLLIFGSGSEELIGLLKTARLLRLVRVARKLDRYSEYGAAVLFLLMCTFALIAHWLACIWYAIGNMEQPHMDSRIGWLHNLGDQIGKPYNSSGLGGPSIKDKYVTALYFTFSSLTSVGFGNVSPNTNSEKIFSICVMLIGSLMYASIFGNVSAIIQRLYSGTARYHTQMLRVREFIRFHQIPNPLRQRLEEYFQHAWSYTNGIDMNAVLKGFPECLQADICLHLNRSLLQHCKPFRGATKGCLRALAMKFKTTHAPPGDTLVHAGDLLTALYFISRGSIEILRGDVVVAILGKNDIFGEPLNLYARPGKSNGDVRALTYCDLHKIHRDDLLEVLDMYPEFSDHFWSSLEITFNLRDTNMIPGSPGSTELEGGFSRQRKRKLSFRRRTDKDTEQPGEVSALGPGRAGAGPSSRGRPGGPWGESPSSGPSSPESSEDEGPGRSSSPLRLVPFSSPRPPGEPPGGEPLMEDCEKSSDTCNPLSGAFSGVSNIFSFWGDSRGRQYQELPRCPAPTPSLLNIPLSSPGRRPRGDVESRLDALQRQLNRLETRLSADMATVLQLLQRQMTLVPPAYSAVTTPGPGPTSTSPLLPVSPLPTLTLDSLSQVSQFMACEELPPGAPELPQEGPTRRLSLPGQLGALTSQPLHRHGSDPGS

Row | Structure (SMILES) | cytotoxicity ([1]; mammalian cell lines) | hERG maturation (mature/immature ratio), dose–response [2] | subcellular localization / membrane expression of hERG [3] | also measured
1 | Cl.Cl.c1cc(C2=NCCN2)ccc1OCCSCCOc1ccc(C2=NCCN2)cc1 [Compound 4, 1,5-bis[4-(4,5-dihydro-2-imidazolyl)phenoxy]-3-thiapentane dihydrochloride] | less or moderate cytotoxicity | – | – | –
2 | Cl.Cl.N=C(N)c1ccc(SCCOCCSc2ccc(C(=N)N)cc2)cc1 [Compound 2, 1,5-bis[4-(amidino)phenylthio]-3-oxapentane dihydrochloride] | – | dose-dependently decreased | pattern comparable with control cells and clear membrane staining was detected | –
3 | Cc1cc(C(=N)N)cc(C)c1OCCN(CCOc1c(C)cc(C(=N)N)cc1C)S(=O)(=O)c1ccccc1.Cl.Cl [3-phenylsulfonyl-1,5-bis(4-amidino-2,6-dimethylphenoxy)-3-azapentane dihydrochloride, reference compound] | – | – | – | anti-Pneumocystis activity [4]: promising activity; cytotoxicity [1]: very low cytotoxicity
4 | Cl.Cl.N=C(N)c1ccc(OCCSCCOc2ccc(C(=N)N)cc2)cc1 [Compound 1, 1,5-bis(4-amidinophenoxy)-3-thiapentane dihydrochloride] | less or moderate cytotoxicity | dose-dependently decreased | pattern comparable with control cells and clear membrane staining was detected | –
5 | CN(CCOc1ccc(NS(C)(=O)=O)cc1)CCc1ccc(NS(C)(=O)=O)cc1 [Dofetilide, reference compound] | – | – | – | hERG maturation (mature/immature ratio) ([2]; pentamidine 10 μM, dofetilide 1 μM, analogues 1 and 10 μM): increases
